In the supplement of paper PMC4862054:

What was measured:
Conditions in all cases: incubation time: 72 h
BT-549 [1] = assay: drug sensitivity score (DSS), CellTox Green (DSS (AUC-based score)); higher = stronger drug effect (viability inhibition or cytotoxicity); extreme values may be limits of the assay
In short: (§1)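 A drug sensitivity score was derived from the area under each fitted dose-response curve. Breast cancer cells (20 µl suspension) were seeded onto compound in 384-well plates, using 5 concentrations 10-fold apart over a compound-specific 10,000-fold range, and incubated 72 h. Readouts were CellTox Green fluorescence and then CellTiter-Glo luminescence, with every plate normalised to 0.1 % DMSO and a positive kill control.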

CAL-120 [2] = assay: as above
In short: as §1

DU-4475 [3] = assay: as above
In short: as §1

HCC1599 [4] = assay: as above
In short: as §1

MCF-10A [5] = assay: as above
In short: as §1

Hs578T [6] = assay: as above
In short: as §1

CAL-85-1 = assay: as above
In short: as §1

MDA-MB-231 = assay: as above
In short: as §1

MFM-223 [7] = assay: as above
In short: as §1

MDA-MB-468 [8] = assay: as above
In short: as §1

MDA-MB-436 [9] = assay: as above
In short: as §1

HCC1937 = assay: as above
In short: as §1

BT-474 [10] = assay: as above
In short: as §1

CAL-148 [11] = assay: as above
In short: as §1

HDQ-P1 [12] = assay: as above
In short: as §1

BT-549 [13] = assay: normalised response (% of control), CellTox Green; higher = less cell death (100 = DMSO, 0 = benzethonium chloride kill control)
In short: (§2)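 Every value is a normalised signal taken at one concentration of a dilution series. Compound was placed in 384-well plates at 5 concentrations in 10-fold steps over a compound-specific 10,000-fold range, and 20 µl of breast cancer cell suspension was seeded onto it. After 72 h, CellTox Green fluorescence (485/520 nm) was measured first and CellTiter-Glo luminescence second, following 10 min at room temperature. Each plate was scaled to 0.1 % DMSO (100) and a positive kill control (0).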

CAL-51 = assay: as above
In short: as §2

CAL-120 [14] = assay: as above
In short: as §2

DU-4475 [15] = assay: as above
In short: as §2

HCC1599 [16] = assay: as above
In short: as §2

MCF-10A [17] = assay: as above
In short: as §2

Hs578T [18] = assay: as above
In short: as §2

MFM-223 [19] = assay: as above
In short: as §2

MDA-MB-468 [20] = assay: as above
In short: as §2

MDA-MB-436 [21] = assay: as above
In short: as §2

BT-474 [22] = assay: as above
In short: as §2

CAL-148 [23] = assay: as above
In short: as §2

HDQ-P1 [24] = assay: as above
In short: as §2

Row | SMILES | drug sensitivity score (BT-549 [1]) | drug sensitivity score (CAL-120 [2]) | drug sensitivity score (DU-4475 [3]) | drug sensitivity score (HCC1599 [4]) | drug sensitivity score (MCF-10A [5]) | drug sensitivity score (Hs578T [6]) | drug sensitivity score (CAL-85-1) | drug sensitivity score (MDA-MB-231) | drug sensitivity score (MFM-223 [7]) | drug sensitivity score (MDA-MB-468 [8]) | drug sensitivity score (MDA-MB-436 [9]) | drug sensitivity score (HCC1937) | drug sensitivity score (BT-474 [10]) | drug sensitivity score (CAL-148 [11]) | drug sensitivity score (HDQ-P1 [12]) | normalised response (BT-549 [13]) | normalised response (CAL-51) | normalised response (CAL-120 [14]) | normalised response (DU-4475 [15]) | normalised response (HCC1599 [16]) | normalised response (MCF-10A [17]) | normalised response (Hs578T [18]) | normalised response (MFM-223 [19]) | normalised response (MDA-MB-468 [20]) | normalised response (MDA-MB-436 [21]) | normalised response (BT-474 [22]) | normalised response (CAL-148 [23]) | normalised response (HDQ-P1 [24])
1 | COc1ccc(-c2cc3c(C)nc(N)nc3n([C@H]3CC[C@H](OCCO)CC3)c2=O)cn1 | 5.99 | 0 | 0 | 0 | 0 | 2 | 4.01 | 14.1 | 0 | 0 | 0 | 1.39 | 11.5 | 12.3 | 6.58 | – | – | – | – | – | – | – | – | – | – | – | – | –
2 | Cc1c(Cn2c(C)nc3c(C(=O)O)cc(N4CCOCC4)cc32)cccc1C(F)(F)F | 0 | 0 | 0 | 0 | 0 | 0 | 0 | 0 | 0 | 0 | 0 | 0 | 0 | 0 | 0 | – | – | – | – | – | – | – | – | – | – | – | – | –
3 | CC/C(=C(\c1ccc(O)cc1)c1ccc(OCCN(C)C)cc1)c1ccccc1 [4-hydroxytamoxifen] | 0 | 1.11 | 0 | 0 | 0 | – | 1.62 | 4.16 | 0 | 21 | 0.732 | 8.17 | 3.8 | 0 | 0 | – | – | – | – | – | – | – | – | – | – | – | – | –
4 | CCCCC/C=C/C=C1/C(=O)C=C[C@@H]1C/C=C\CCCC(=O)O [15D-PGJ2] | 0 | 0 | 0 | 0 | 0 | 0 | 0 | 0 | 0 | 0 | 0 | 0 | 0 | 0 | 0 | – | – | – | – | – | – | – | – | – | – | – | – | –
5 | O=C(Nc1c[nH]nc1-c1nc2ccc(CN3CCOCC3)cc2[nH]1)NC1CC1 [AT9283] | 0 | 3.42 | 0 | 0 | 0 | 0.649 | – | 14.3 | 0 | 13.2 | 0 | 0 | 0 | 0 | 0 | – | – | – | – | – | – | – | – | – | – | – | – | –
6 | COc1cc(CCc2cc(NC(=O)c3ccc(N4CC(C)NC(C)C4)cc3)n[nH]2)cc(OC)c1 (stereo not drawn) [AZD4547] | 0 | 0.0106 | 0 | 0 | 0 | 0 | 0 | 0 | 0 | 0 | 0 | 0 | 0 | 0.783 | 2.76 | – | – | – | – | – | – | – | – | – | – | – | – | –
7 | CCC/C=C/C=C/C(=O)O[C@H]1/C(=C/C(=O)OC)C[C@H]2C[C@H]([C@@H](C)O)OC(=O)C[C@H](O)C[C@@H]3C[C@H](OC(C)=O)C(C)(C)[C@](O)(C[C@@H]4C/C(=C/C(=O)OC)C[C@H](/C=C/C(C)(C)[C@]1(O)O2)O4)O3 [Bryostatin 1] | 0 | 0 | 0 | 0 | 0 | 0 | 0 | 0 | 0 | 0 | – | 4.81 | 0 | 0 | 10.8 | – | – | – | – | – | – | – | – | – | – | – | – | –
8 | O=S(=O)(c1cccc2cnccc12)N1CCCNCC1 [Fasudil] | 0 | 0 | 0 | 0 | 0 | 0 | 0 | 2.62 | 0 | – | 0 | 0 | 0 | 0 | – | – | – | – | – | – | – | – | – | – | – | – | – | –
9 | Nc1ccccc1NC(=O)c1ccc(CNc2nccc(-c3cccnc3)n2)cc1 [Mocetinostat] (10000 nM) | – | – | – | – | – | – | – | – | – | – | – | – | – | – | – | 34.1% | 7.12% | 17.4% | 72.3% | 73.8% | 84% | 48.6% | 60.3% | -170% | -9.9% | 34.8% | 35.8% | -1.8%
10 | COc1nc(N)nc2c1ncn2[C@@H]1O[C@H](CO)[C@@H](O)[C@@H]1O [Nelarabine] (1000 nM) | – | – | – | – | – | – | – | – | – | – | – | – | – | – | – | 128% | 99.3% | 89% | 94.7% | 90.3% | 98.8% | 107% | 89.8% | 102% | 88.7% | 96.4% | 87.2% | 78.7%
11 | COc1nc(N)nc2c1ncn2[C@@H]1O[C@H](CO)[C@@H](O)[C@@H]1O [Nelarabine] (10000 nM) | – | – | – | – | – | – | – | – | – | – | – | – | – | – | – | 87.5% | 111% | 93.8% | 98.5% | 96.5% | 83.2% | 91.4% | 87.6% | 122% | 91% | 96% | 100% | 111%
12 | Cc1ccc(Nc2nccc(N(C)c3ccc4c(C)n(C)nc4c3)n2)cc1S(N)(=O)=O [Pazopanib] (1000 nM) | – | – | – | – | – | – | – | – | – | – | – | – | – | – | – | 127% | 107% | 101% | 100% | 105% | 77% | 110% | 102% | 50% | 64.8% | 104% | 106% | 94.3%
13 | Cc1ccc(Nc2nccc(N(C)c3ccc4c(C)n(C)nc4c3)n2)cc1S(N)(=O)=O [Pazopanib] (10000 nM) | – | – | – | – | – | – | – | – | – | – | – | – | – | – | – | 119% | 76.9% | 94% | 104% | 100% | 94.8% | 77.2% | 96.1% | 162% | 96.9% | 99.5% | 100% | 111%
14 | C[C@]12C=CC(=O)C=C1CC[C@@H]1[C@@H]2[C@@H](O)C[C@@]2(C)[C@H]1CC[C@]2(O)C(=O)CO [Prednisolone] | 0 | 0 | 0 | 0 | 0 | 0 | 0 | 0 | 0 | 0 | – | 0 | 0 | 0 | 0.861 | – | – | – | – | – | – | – | – | – | – | – | – | –
15 | C[C@]12C=CC(=O)C=C1CC[C@@H]1[C@@H]2[C@@H](O)C[C@@]2(C)[C@H]1CC[C@]2(O)C(=O)CO [Prednisolone] (10000 nM) | – | – | – | – | – | – | – | – | – | – | – | – | – | – | – | 90.8% | 102% | 99.8% | 100% | 97.9% | 100% | 66.8% | 99.7% | 154% | 60.2% | 101% | 101% | 57.2%
16 | CC(C)N(CCCNC(=O)Nc1ccc(C(C)(C)C)cc1)C[C@H]1O[C@@H](n2cc(Br)c3c(N)ncnc32)[C@H](O)[C@@H]1O [SGC0946] | 0 | 0 | 0 | 0 | 0 | – | 0 | 0 | 0 | 0 | 0 | 0 | 0 | 0 | 0 | – | – | – | – | – | – | – | – | – | – | – | – | –
17 | CNC(=O)c1cc(Oc2ccc(NC(=O)Nc3ccc(Cl)c(C(F)(F)F)c3)cc2)ccn1 [Sorafenib] (1000 nM) | – | – | – | – | – | – | – | – | – | – | – | – | – | – | – | 111% | 115% | 101% | 97.7% | 97.5% | 89% | 118% | 92.8% | 70.1% | 87.5% | 100% | 74.5% | 103%
18 | CCN(CC)CCNC(=O)c1c(C)[nH]c(/C=C2\C(=O)Nc3ccc(F)cc32)c1C [Sunitinib] (100 nM) | – | – | – | – | – | – | – | – | – | – | – | – | – | – | – | 127% | 86.5% | 98.3% | 98.1% | 106% | 108% | 77% | 101% | 102% | 97.1% | 103% | 86% | 76.8%
19 | CCN(CC)CCNC(=O)c1c(C)[nH]c(/C=C2\C(=O)Nc3ccc(F)cc32)c1C [Sunitinib] (1000 nM) | – | – | – | – | – | – | – | – | – | – | – | – | – | – | – | 104% | 106% | 98.2% | 99.7% | 105% | 80.6% | 95.9% | 99.2% | 66.4% | 106% | 95% | 85.4% | 101%
20 | CC[C@@]1(O)C(=O)OCc2c1cc1n(c2=O)Cc2cc3c(CN(C)C)c(O)ccc3nc2-1 [Topotecan] (100 nM) | – | – | – | – | – | – | – | – | – | – | – | – | – | – | – | 92.8% | 65% | 98.9% | 94.9% | 90.7% | 106% | 98.7% | 98% | 91.8% | 76.5% | 103% | 37.6% | 103%
